Measured values reported in patent US20250002514A1, “AMORPHOUS FORM OF BISMUTH-1,2-ETHANEDITHIOL AND METHODS OF MAKING” (Microbion Corporation, priority 2021, published 2025).
Like-named read-outs stand apart in the source and are kept apart here.

Assays:
[1] = BisEDT single-dose rat PK studies comparing inhalation, IV and oral dosing; type: in vivo
Protocol: Based on existing in vivo and in vitro toxicology data as well as rat PK and in vitro MIC data, BisEDT suspension for inhalation can be reliably administered at doses providing efficacious lung levels that are tolerated, and it is therefore a viable clinical development candidate. […] 24 hours after single inhalation dose 4,093 ng/g was measured in the lung tissue (which equates to 123 μg/mL in lung fluid) and 4 days (96 hrs) after single dose 2,600 ng/g in lung tissue (which equates to 78 μg/mL in lung fluid). Without being bound by any particular theory, it is believed BisEDT's low solubility provides slow dissolution and long exposure on lung surface fluids with limited systemic exposure via diffusion through lung epithelium. The lung appears to act as a depot for slow systemic exposure with about 10× lower systemic levels than seen in the lung. The terminal phase of the IV data appears to show slow elimination after initial tissue distribution (FIG. 10).

[2] = system: Pseudomonas aeruginosa strain PA01; assay: Bacterial killing curves with and without 10% cystic fibrosis patient sputum; type: cell-based
Protocol: Bacterial killing curves with BisEDT and BisBDT were performed in the presence of […] cystic fibrosis patient sputum in order to determine whether the test compounds are potentially inactivated by sputum. The assay is described in King P, Lomovskaya O, Griffith D C, Burns J L, Dudley M N. In vitro pharmacodynamics of levofloxacin and other aerosolized antibiotics under multiple conditions relevant to chronic pulmonary infection in cystic fibrosis. Antimicrob Agents Chemother, 54:143-8, 2010.
Sputum was collected from cystic fibrosis (CF) patient volunteers without recent antibiotic exposure after appropriate IRB approval. Sputum was sterilized by UV irradiation and sterilization was confirmed by culture. An overnight culture of Pseudomonas aeruginosa strain PA01 was used to inoculate fresh cultures in cation-adjusted Mueller-Hinton broth or cation-adjusted Mueller-Hinton broth plus 10% CF patient sputum. Drugs were added to individual culture tubes with and without sputum at the following final concentrations: • BisEDT: 0.1 μg/mL, 2 μg/mL, and 20 μg/mL • BisBDT: 0.1 μg/mL. 4 μg/mL, and 20 μg/mL
Tobramycin at 1 μg/mL was used as a comparator drug control known to be partially inactivated by patient sputum. Cultures were incubated with shaking at 37° C. and aliquots were removed every hour for quantitation of colony forming units per mL (CFU/mL) by serial dilution and plating on tryptic soy agar for a total of 6 hours. CFU were counted after incubation of the plates overnight at 37° C.

[3] = Nose-only inhalation exposure in F344 rats: whole blood and lung BisEDT concentration (ICP-MS bismuth as surrogate); type: in vivo; conditions: rat; for concentration at 8 h: nominal time 8 hr; for concentration at 12 h: nominal time 12 hr; for concentration at 24 h: nominal time 24 hr; for concentration at 30 h: nominal time 30 hr
Protocol: Inhalation Exposure: The initial exposure of BisEDT (Bismuth-1,2-ethanedithiol) was formulated as a solution at 100 mg/mL in suspension in 0.5% Tween 80, 10 mM sodium phosphate, pH 7.4, in NaCl (adjusted to approximately 300 mOsm). Aerosols were generated with a commercial compressed air jet nebulizer, Pad LC Plus, operated with an inlet pressure of 20 psi. The aerosols were transitioned into a rodent nose-only inhalation exposure system. The exposure system was operated with an inlet air flow of […] and an exhaust air flow of −5 L/min.
Detailed gross necropsies were performed on all animals (found dead, moribund, or scheduled necropsy) and consisted of a complete external and internal examination including body orifices and cranial, thoracic, and abdominal organs and tissues. All gross findings will be recorded in descriptive terms. […] Lungs collected and weighed.
Tables 6 and 7 below show whole blood BisEDT versus time data and lung BisEDT concentration at sacrifice time data respectively.

[4] = both sexes, F344, whole blood, inhaled, single inhalation dose 47 μg/kg, read-out: Whole blood Mean BisEDT Conc
[5] = both sexes, F344, whole blood, inhaled, single inhalation dose 124 μg/kg, read-out: Whole blood Mean BisEDT Conc
[6] = both sexes, F344, whole blood, inhaled, single inhalation dose 400 μg/kg, read-out: Whole blood Mean BisEDT Conc
[7] = both sexes, F344, whole blood, inhaled, single inhalation dose 3000 μg/kg, read-out: Whole blood Mean BisEDT Conc

Question: Which results are given for `C1C[S][Bi]([S]CC[S][Bi]2[S]CC[S]2)[S]1` [BisEDT, Bismuth-1,2-ethanedithiol]?
Answer: Tolerability ([1]; 100 μg/kg inhalation and IV and 250 μg/kg oral, single dose): tolerated; Systemic levels lower than seen in the lung (fold) ([1]; after inhalation dosing): about 10 ×; Duration of initial distribution into tissues after IV dosing (biphasic pattern) ([1]; single 100 μg/kg IV dose): 18 h; Half-life of lung levels after IV dosing ([1]; single 100 μg/kg IV dose): about 24 hour; Lung levels after IV dosing vs inhalation group ([1]; single 100 μg/kg IV dose): < 5%; Blood exposure after inhalation dosing ([1]; single 100 μg/kg inhalation dose): sustained, moderate, blood exposure with relatively stable concentrations across time; Blood concentrations after oral dosing ([1]; single 250 μg/kg oral dose): very low, but sustained and measurable; Lung levels after oral dosing ([1]; single 250 μg/kg oral dose): no lung levels; Half-life in lung tissue after inhalation dosing ([1]; single inhalation dose (100 μg/kg lung deposited)): about 4 days; Bactericidal activity against PA01 at 0.1 μg/mL ([2]; 0.1 μg/mL, 6 hour assay): not bactericidal; Effect of CF patient sputum on bactericidal activity ([2]; 10% CF patient sputum in cation-adjusted Mueller-Hinton broth): partially inhibited; Bactericidal activity against Pseudomonas aeruginosa strain PA01 in this assay ([2]; overall conclusion of killing curves): bactericidal; concentration at 8 h [3, 4]: 114 ng/mL; concentration at 12 h [3, 4]: 98 ng/mL; concentration at 24 h [3, 4]: 282 ng/mL; concentration at 30 h [3, 4]: 373 ng/mL; concentration at 8 h [3, 5]: 247 ng/mL; concentration at 12 h [3, 5]: 187 ng/mL; concentration at 24 h [3, 5]: 571 ng/mL; concentration at 30 h [3, 5]: 668 ng/mL; concentration at 8 h [3, 6]: 1700 ng/mL; concentration at 12 h [3, 6]: 1250 ng/mL; concentration at 24 h [3, 6]: 2700 ng/mL; concentration at 30 h [3, 6]: 2740 ng/mL; concentration at 1 h ([3]; both sexes, F344, whole blood, inhaled, single inhalation dose 3000 μg/kg, nominal time 1 hr, read-out: Whole blood Mean BisEDT Conc): 485 ng/mL; concentration at 2 h ([3]; both sexes, F344, whole blood, inhaled, single inhalation dose 3000 μg/kg, nominal time 2 hr, read-out: Whole blood Mean BisEDT Conc): 2500 ng/mL; concentration at 8 h [3, 7]: 6570 ng/mL; concentration at 24 h [3, 7]: 20500 ng/mL; Lung Mean BisEDT Conc at sacrifice ([3]; single inhalation dose 47 μg/kg, sac time 30 hr): 4.8 ng/g; Lung Mean BisEDT Conc at sacrifice ([3]; single inhalation dose 124 μg/kg, sac time 30 hr): 5.9 ng/g; Lung Mean BisEDT Conc at sacrifice ([3]; single inhalation dose 400 μg/kg, sac time 30 hr): 12.1 ng/g; Lung Mean BisEDT Conc at sacrifice ([3]; single inhalation dose 3000 μg/kg, sac time 24 hr): 82.3 ng/g

Question: For `NC[C@H]1O[C@H](O[C@H]2[C@H](O)[C@@H](O[C@H]3O[C@H](CO)[C@@H](O)[C@H](N)[C@H]3O)[C@H](N)C[C@@H]2N)[C@H](N)C[C@@H]1O` [tobramycin, reference compound], which “CFU higher in cultures with sputum compared to cultures without sputum” value ([2]; tobramycin 1 μg/mL, 10% CF patient sputum, most time points) is on record?
Answer: The value was 0.5-1 log CFU/mL.
